Tests used:
[1] = rate of generation of aspirin via hydrolysis, determined spectrophotometrically at 285 nm; type: physicochemical; conditions: for half-life: buffer, read-out: half-life of hydrolysis to aspirin (t1/2); for half-life / half-life of hydrolysis to aspirin (t1/2): average of three determinations
Description: Therefore, the decrease in absorbance of a solution containing both the prodrug of this invention and aspirin observed at 285 nanometers upon adjustment of the pH to a value of six is proportional to the amount of aspirin in the solution.
Accordingly, the rate of generation of aspirin via hydrolysis of the derivative of the present invention was determined spectrophotometrically at 285 nm. Solutions of 1-O-(2'-acetoxy)benzoyl-α-D-2-deoxyglucopyranose in a buffered solution containing 5 mg/ml were freshly prepared and maintained at constant temperature in a circulating waterbath. […] Buffers employed were hydrochloric acid (pH 1 to 2), citrate (pH 3), acetate (pH 4 to 6) and phosphate (pH 7-9). Ionic strength was adjusted with potassium chloride (usually to 0.1). The change in absorbance at 285 nm was followed until no change in absorbance was observed. First order plots were constructed by plotting log (At -A.infin.) agains time. The effect of pH on the rate of hydrolysis was determined using solutions ranging from pH 1.2 to pH 9.
*Each halflife is the average of three determinations.

[2] = cited from earlier work
[3] = rate of hydrolysis by following the rate of appearance of aspirin in solution by high pressure liquid chromatography; type: physicochemical; conditions: HPLC; pH and temperature not given
Description: The rate of hydrolysis of 1-O-(2'-acetoxy)benzoyl-α-D-glucopyranose, i.e., the compound of the formula [drawing 4] was determined by following the rate of appearance of aspirin in a solution by high pressure liquid chromatography.

Q: For `CC(=O)Oc1ccccc1C(=O)O[C@@H]1C[C@@H](O)[C@H](O)[C@@H](CO)O1` [1-O-(2'-acetoxy)benzoyl-α-D-2-deoxyglucopyranose], which half-life ([1]; pH 3, pH 3, 37° C) is on record?
A: Its half-life is 7 min.

Q: What about the half-life ([1]; pH 4.6, pH 4.6, 37° C) of the same compound?
A: The half-life was 7.1 min.

Q: What about the half-life ([1]; pH 8, pH 8, 37° C) of the same compound?
A: Its half-life is 7 min.

Q: And the half-life ([1]; pH 9, pH 9, 37° C)?
A: The half-life was 7 min.

Q: What about the “half-life of hydrolysis to aspirin (t1/2)” value ([1]; pH 6.4, 37° C) of the same compound?
A: The value was 7.0 min.

Q: What about the “half-life of hydrolysis to aspirin (t1/2)” value ([1]; pH 8, 37° C) of the same compound?
A: The value was 7.02 min.

Q: And the “effect of pH on the generation of aspirin from the derivative” value ([1]; solutions ranging from pH 1.2 to pH 9)?
A: The value was “independent of the pH of the solutions”.

Q: For `CC(=O)Oc1ccccc1C(=O)O[C@H]1O[C@H](CO)[C@@H](O)[C@H](O)[C@H]1O` [1-O-(2'-acetoxy)benzoyl-α-D-glucopyranose], which hydrolysis product ([2]; reaction scheme (II)) is on record?
A: The hydrolysis product was “tends to hydrolyze so as to form the corresponding sugar derivative of salicylic acid”.

Q: And the “rate of hydrolysis to aspirin” value ([2]; to the extent that hydrolysis to aspirin takes place)?
A: The value was “very slow rate”.

Q: And the half-life [3]?
A: The half-life was 55 h.

Source: US4242330A, “Derivative of aspirin” (The University of Kentucky Research Foundation, priority 1979, dated 1980)
